The record followed here is ChEMBL document CHEMBL3400142, “Synthesis of nitro(benzo)thiazole acetamides and in vitro antiprotozoal effect against amitochondriate parasites Giardia intestinalis and Trichomonas vaginalis” (Bioorg Med Chem, 2015).

Some results are limits rather than exact numbers.

In data set [1] the test system is Giardia duodenalis. Kind of data set: Inhibition of Giardia intestinalis fructose 1,6-bisphosphate aldolase at 400 nM after 2 hrs by spectrophotometry.
The test system of data set [2] is Trichomonas vaginalis. Description: Trichomonicidal activity against Trichomonas vaginalis GT3 compound treated for 48 hrs followed by incubation for 48 hrs in compound-free medium by cell counting. Format: functional, organism-based. The settings on record: GT3, 48 h.
Data set [3] in a line: Cytotoxicity against African green monkey Vero cells after 48 hrs by MTT assay. The data set is classed as cell-based. The settings on record: chlorocebus sabaeus.
For data set [4], the system named is Giardia intestinalis. Description: Giardicidal activity against Giardia intestinalis IMSS:0696:1 compound treated for 48 hrs followed by incubation for 48 hrs in compound-free medium by cell counting. The settings on record: Giardia duodenalis, IMSS:0696:1, 48 h. The data set is classed as functional, organism-based.
Data set [5] concerns Trichomonas vaginalis. Description: Ratio of nitazoxanide IC50 to compound IC50 for Trichomonas vaginalis GT3 compound treated for 48 hrs followed by incubation for 48 hrs in compound-free medium by cell counting. Format: functional.
In data set [6] the test system is Trichomonas vaginalis. Description: Ratio of metronidazole IC50 to compound IC50 for Trichomonas vaginalis GT3 compound treated for 48 hrs followed by incubation for 48 hrs in compound-free medium by cell counting. The data set is classed as functional.
A short description of data set [7]: Selectivity index, ratio of CC50 for african green monkey Vero cells to IC50 for Giardia intestinalis IMSS:0696:1. The data set is classed as functional.
Data set [8] relates to Giardia intestinalis. Description: Ratio of metronidazole IC50 to compound IC50 for Giardia intestinalis IMSS:0696:1 compound treated for 48 hrs followed by incubation for 48 hrs in compound-free medium by cell counting. Format: functional, Giardia duodenalis.
Data set [9] deals with Giardia intestinalis. Kind of data set: Ratio of nitazoxanide IC50 to compound IC50 for Giardia intestinalis IMSS:0696:1 compound treated for 48 hrs followed by incubation for 48 hrs in compound-free medium by cell counting. Format: functional, Giardia duodenalis.
The subject of data set [10] is Giardia duodenalis. Kind of data set: Ratio of nitazoxanide IC50 to compound IC50 for Giardia intestinalis fructose 1,6-bisphosphate aldolase at 400 nM after 2 hrs by spectrophotometry.

On to `Nc1ncc([N+](=O)[O-])s1`, for which, in the data set with Giardia duodenalis [1], the inhibition was -0%.
Compound `O=C(CN1CCOCC1)Nc1nc2ccc([N+](=O)[O-])cc2s1` returned an inhibition in the data set with Giardia duodenalis [1] of 35%. Moreover, the IC50 with Trichomonas vaginalis [2] was determined as 0.331 µM; in the data set with Giardia intestinalis [4] (read-out: IC50) it was 3.35 µM. Besides, the CC50 at 48 h in [3] is more than 1000 µM.
In turn, `O=C(CN1CCCC1)Nc1nc2ccc([N+](=O)[O-])cc2s1` came in with an inhibition with Giardia duodenalis [1] of 10%. The IC50 was found to be 0.221 µM in the data set with Trichomonas vaginalis [2] and 0.298 µM in the data set on Giardia intestinalis [4] (read-out: IC50). This compound also had a CC50 at 48 h in data set [3] of more than 1000 µM.
The matching figures for `O=C(CN1CCCCC1)Nc1ncc([N+](=O)[O-])s1`: 5%, 2.04 µM, 0.219 µM and more than 1000 µM.
In the data set on Giardia duodenalis [1], `CC(=O)Oc1ccccc1C(=O)Nc1ncc([N+](=O)[O-])s1` yielded an inhibition of 31%.
As for `O=C(Nc1ncc([N+](=O)[O-])s1)c1ccccc1O` [TIZOXANIDE], the inhibition in the data set with Giardia duodenalis [1] was found to be 25%. This compound yielded a CC50 at 48 h in data set [3] of 388 µM.
As to `O=C(CN1CCCCC1)Nc1nc2ccc([N+](=O)[O-])cc2s1`, in the data set on Giardia duodenalis [1], the inhibition is -0%. In addition, the IC50 turned out to be 3.43 µM in the data set with Trichomonas vaginalis [2] and 2.31 µM in the data set on Giardia intestinalis [4] (read-out: IC50). Besides, the cytotoxic concentration (CC50) at 48 h in data set [3] is more than 1000 µM.
As for `Nc1nc2ccc([N+](=O)[O-])cc2s1`, the “Ratio IC50” value stood at 3 with Trichomonas vaginalis [5] and 13 with Trichomonas vaginalis [6]. For the same compound, in the data set with Giardia duodenalis [1], the inhibition is -0%. The IC50 was 0.625 µM with Trichomonas vaginalis [2] and 24.4 µM in the data set with Giardia intestinalis [4] (read-out: IC50). In data set [3], this compound had a CC50 at 48 h of 607 µM.
In turn, `CCN(CC)CC(=O)Nc1nc2ccc([N+](=O)[O-])cc2s1` showed an inhibition with Giardia duodenalis [1] of -0%. Moreover, the IC50 in the data set with Trichomonas vaginalis [2] was 3.21 µM; in the data set on Giardia intestinalis [4] (read-out: IC50), 2.03 µM. This compound also displayed a CC50 at 48 h in [3] of more than 1000 µM.
Consider `CCN(CC)CC(=O)Nc1ncc([N+](=O)[O-])s1`, for which the “Ratio CC50/IC50” value in [7] came out at 8196. The compound further showed an inhibition in the data set with Giardia duodenalis [1] of 66%. In addition, the figures for the “Ratio IC50” value in the data set on Giardia intestinalis [8], in the data set with Giardia intestinalis [9] and in the data set on Giardia duodenalis [10] were 44, 10 and 2, respectively. Besides, the IC50 with Trichomonas vaginalis [2] is 2.25 µM; in the data set with Giardia intestinalis [4] (read-out: IC50), 0.122 µM; with Giardia intestinalis [4] (read-out: pIC50 (converted)) it was 0.123 µM. Further, the CC50 at 48 h in [3] is more than 1000 µM.
The compound `Cc1ncc([N+](=O)[O-])n1CCO` [METRONIDAZOLE] had a CC50 at 48 h in [3] of 367 µM.
Compound `CC(=O)Nc1ncc([N+](=O)[O-])s1` [NITHIAMIDE] came in with an inhibition in the data set with Giardia duodenalis [1] of -0%. This compound also displayed a CC50 at 48 h in [3] of more than 1000 µM.
For the compound `O=C(CN1CCCC1)Nc1ncc([N+](=O)[O-])s1`, the inhibition in the data set on Giardia duodenalis [1] is 21%. The entries for the “Ratio IC50” value in the data set on Giardia intestinalis [8] and with Giardia intestinalis [9] were 24 and 5, respectively. The IC50 in the data set with Trichomonas vaginalis [2] is 6.1 µM; in the data set on Giardia intestinalis [4] (read-out: IC50), 0.178 µM. In data set [3], the CC50 at 48 h was more than 1000 µM.
Take `O=C(CN1CCOCC1)Nc1ncc([N+](=O)[O-])s1`: the “Ratio CC50/IC50” value in [7] is given as 6622. In addition, the inhibition in the data set with Giardia duodenalis [1] came out at 54%. Moreover, the “Ratio IC50” value came to 35 with Giardia intestinalis [8], 8 in the data set with Giardia intestinalis [9] and 2 in the data set on Giardia duodenalis [10]. Besides, the IC50 with Trichomonas vaginalis [2] is 0.305 µM; with Giardia intestinalis [4] (read-out: IC50), 0.151 µM; in the data set with Giardia intestinalis [4] (read-out: pIC50 (converted)), 0.151 µM. In data set [3], this compound showed a CC50 at 48 h of more than 1000 µM.
